Reference: US11149018B2, “Substituted N-arylethyl-2-aminoquinoline-4-carboxamides and use thereof” (Bayer Aktiengesellschaft, priority 2017, dated 2021)

Molecular target: FP receptor (Homo sapiens (Human), UniProt P43088)
Assay: In vitro test of inhibition of human FP receptor activity (PGF2α-induced calcium flux in FP-expressing CHEM1 cells)
Type: cell-based
Details: PGF2α 2 nM, some mean values of multiple determinations
Method: B-1. In Vitro Test of Inhibition of Human FP Receptor Activity
For the characterization of test substances in respect of FP antagonism, PGF2α-induced calcium flux in FP-expressing CHEM1 cells (Millipore, HTS093C) was used.
10 μl of the prediluted substance solution are added to the Fluo-8-laden cells and incubated at 37° C., 5% CO2 for 10 minutes. The FP receptor is activated by adding 40 μl of 2 nM (final concentration) PGF2α in calcium-free Tyrode, 2 mM CaCl2, 0.002% SmartBlock, and the calcium flux is determined by measuring the fluorescence at ex. 470 nm/[…].
Table 1 below lists the IC50 values from this assay for individual working examples of the invention (some as mean values from multiple independent individual determinations): […]

Chain of FP receptor (P43088 whole entry): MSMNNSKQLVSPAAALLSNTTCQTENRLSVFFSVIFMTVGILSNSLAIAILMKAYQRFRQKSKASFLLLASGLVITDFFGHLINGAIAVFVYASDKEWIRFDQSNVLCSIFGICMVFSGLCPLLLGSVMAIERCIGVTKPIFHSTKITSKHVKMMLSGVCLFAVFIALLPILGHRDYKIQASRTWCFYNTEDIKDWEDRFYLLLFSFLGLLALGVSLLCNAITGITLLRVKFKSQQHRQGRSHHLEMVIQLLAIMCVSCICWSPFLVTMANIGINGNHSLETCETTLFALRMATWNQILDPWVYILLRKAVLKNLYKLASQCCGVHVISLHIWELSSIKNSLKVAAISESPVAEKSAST

Row | IC50 [nM] | Compound
1 | 0.76 | Cc1c(N2CCCCCC2)nc2ccc(Br)cc2c1C(=O)NCC(CCC(=O)O)c1c(F)ccc(F)c1Cl (single isomer, unassigned) [Example 220, 5-({[2-(Azepan-1-yl)-6-bromo-3-methylquinolin-4-yl]carbonyl}amino)-4-(2-chloro-3,6-difluorophenyl)pentanoic acid]
2 | 4.1 | Cc1c(N2CCCC(F)C2)nc2ccc(Br)cc2c1C(=O)NCC(CCC(=O)O)c1ccccc1C(F)(F)F (single isomer, unassigned) [Example 191, 5-[({6-Bromo-2-[3-fluoropiperidin-1-yl]-3-methylquinolin-4-yl}carbonyl)amino]-4-[2-(trifluoromethyl)phenyl]pentanoic acid]
3 | 2.8 | CCC1CCCN(c2nc3ccc(Br)cc3c(C(=O)NCC(CCC(=O)O)c3ccccc3C(F)(F)F)c2C)C1 (stereo not shown) [Example 124, 5-[({6-Bromo-2-[3-ethylpiperidin-1-yl]-3-methylquinolin-4-yl}carbonyl)amino]-4-[2-(trifluoromethyl)phenyl]pentanoic acid]
4 | 340 | Cc1c(NC2CCCC2)nc2ccc(Br)cc2c1C(=O)NCC(CCC(=O)O)c1ccccc1Cl (racemic) [Example 103, (+/−)-5-({[6-Bromo-2-(cyclopentylamino)-3-methylquinolin-4-yl]carbonyl}amino)-4-(2-chlorophenyl)pentanoic acid]
5 | 48 | Cc1c(N2CC=CC2)nc2ccc(Br)cc2c1C(=O)NCC(CCC(=O)O)c1cc(F)ccc1Cl (racemic) [Example 15, (+/−)-5-({[6-Bromo-2-(2,5-dihydro-1H-pyrrol-1-yl)-3-methylquinolin-4-yl]carbonyl}amino)-4-(2-chloro-5-fluorophenyl)pentanoic acid]
6 | 1.6 | CCC1CCCN(c2nc3ccc(Br)cc3c(C(=O)NCC(CCC(=O)O)c3c(F)ccc(F)c3Cl)c2C)C1 (stereo not shown) [Example 158, 5-[({6-Bromo-2-[3-ethylpiperidin-1-yl]-3-methylquinolin-4-yl}carbonyl)amino]-4-(2-chloro-3,6-difluorophenyl)pentanoic acid]
7 | 6.4 | Cc1c(N2CCC[C@H]2C)nc2ccc(Br)cc2c1C(=O)NCC(CCC(=O)O)c1ccccc1Cl (single isomer, unassigned; (+)) [Example 83]
8 | 160 | (+)-5-({[6-Bromo-3-methyl-2-(piperidin-1-yl)quinolin-4-yl]carbonyl}amino)-4-(2,3,6-trichlorophenyl)pentanoic acid [Example 175]
9 | 2.9 | Cc1c(N2CCCCC2)nc2ccc(Br)cc2c1C(=O)NCC(CCC(=O)O)c1c(F)cccc1OC(F)F (racemic) [Example 182, (+/−)-5-({[6-Bromo-3-methyl-2-(piperidin-1-yl)quinolin-4-yl]carbonyl}amino)-4-[2-(difluoromethoxy)-6-fluorophenyl]pentanoic acid]
10 | 230 | Cc1c(N2CCCC(CO)C2)nc2ccc(Br)cc2c1C(=O)NCC(CCC(=O)O)c1cc(F)ccc1Cl (stereo not shown) [Example 21, 5-[({6-Bromo-2-[3-(hydroxymethyl)piperidin-1-yl]-3-methylquinolin-4-yl}carbonyl)amino]-4-(2-chloro-5-fluorophenyl)pentanoic acid]
11 | 6.6 | CCC1CCCN(c2nc3ccc(Br)cc3c(C(=O)NCC(CCC(=O)O)c3c(Cl)ccc(Cl)c3Cl)c2C)C1 (stereo not shown) [Example 181, 5-[({6-Bromo-2-[3-ethylpiperidin-1-yl]-3-methylquinolin-4-yl}carbonyl)amino]-4-(2,3,6-trichlorophenyl)pentanoic acid]
12 | 4.5 | Cc1ccc(F)cc1C(CCC(=O)O)CNC(=O)c1c(C)c(N2CCCCC2)nc2ccc(Br)cc12 (single isomer, unassigned; (-)) [Example 148, (−)-5-({[6-Bromo-3-methyl-2-(piperidin-1-yl)quinolin-4-yl]carbonyl}amino)-4-(5-fluoro-2-methylphenyl)pentanoic acid]
13 | 850 | Cc1c(N2CCN(C)CC2)nc2ccc(Br)cc2c1C(=O)NCC(CCC(=O)O)c1ccccc1Cl (racemic) [Example 54, (+/−)-5-({[6-Bromo-3-methyl-2-(4-methylpiperazin-1-yl)quinolin-4-yl]carbonyl}amino)-4-(2-chlorophenyl)pentanoic acid]
14 | 450 | CCCCNc1nc2ccc(Br)cc2c(C(=O)NCC(CCC(=O)O)c2ccccc2Cl)c1C (racemic) [Example 101, (+/−)-5-({[6-Bromo-2-(butylamino)-3-methylquinolin-4-yl]carbonyl}amino)-4-(2-chlorophenyl)pentanoic acid]
15 | 2.8 | CCC1CCCN(c2nc3ccc(Br)cc3c(C(=O)NCC(CCC(=O)O)c3c(F)cccc3F)c2C)C1 (stereo not shown) [Example 254, 5-[({6-Bromo-2-(3-ethylpiperidin-1-yl)-3-methylquinolin-4-yl}carbonyl)amino]-4-(2,6-difluorophenyl)pentanoic acid]
16 | 17 | Cc1c(N2CCCC(C)C2)nc2ccc(Br)cc2c1C(=O)NCC(CCC(=O)O)c1ccccc1C(F)(F)F (single isomer, unassigned; (-)) [Example 200, (−)-5-[({6-Bromo-3-methyl-2-[3-methylpiperidin-1-yl]quinolin-4-yl}carbonyl)amino]-4-[2-(trifluoromethyl)phenyl]pentanoic acid]
17 | 950 | Cc1c(NCc2ccccc2)nc2ccc(Br)cc2c1C(=O)NCC(CCC(=O)O)c1ccccc1Cl (racemic) [Example 96, (+/−)-5-({[2-(Benzylamino)-6-bromo-3-methylquinolin-4-yl]carbonyl}amino)-4-(2-chlorophenyl)pentanoic acid]
18 | 3.9 | Cc1c(N2CCCC2)nc2ccc(Br)cc2c1C(=O)NCC(CCC(=O)O)c1c(F)ccc(F)c1Cl (single isomer, unassigned; (+)) [Example 215, (+)-5-({[6-Bromo-3-methyl-2-(pyrrolidin-1-yl)quinolin-4-yl]carbonyl}amino)-4-(2-chloro-3,6-difluorophenyl)pentanoic acid]
19 | 9.4 | Cc1c(N2CCCC(F)(F)C2)nc2ccc(Br)cc2c1C(=O)NCC(CCC(=O)O)c1c(F)cccc1F (single isomer, unassigned; (-)) [Example 252, (−)-5-({[6-Bromo-2-(3,3-difluoropiperidin-1-yl)-3-methylquinolin-4-yl]carbonyl}amino)-4-(2,6-difluorophenyl)pentanoic acid]
20 | 2.4 | Cc1c(N2CCCC2)nc2ccc(Br)cc2c1C(=O)NCC(CCC(=O)O)c1ccccc1C(F)(F)F (single isomer, unassigned; (-)) [Example 280, (−)-5-[({6-Bromo-3-methyl-2-[(^2H8)pyrrolidin-1-yl]quinolin-4-yl}carbonyl)amino]-4-[2-(trifluoromethyl)phenyl]pentanoic acid]
21 | 12 | Cc1ccccc1C(CCC(=O)O)CNC(=O)c1c(C)c(N2CCCC(F)(F)C2)nc2ccc(Br)cc12 (single isomer, unassigned; (-)) [Example 230, (−)-5-({[6-Bromo-2-(3,3-difluoropiperidin-1-yl)-3-methylquinolin-4-yl]carbonyl}amino)-4-(2-methylphenyl)pentanoic acid]
22 | 6.6 | Cc1c(N2CCCCC2)nc2ccc(Br)cc2c1C(=O)NCC(CCC(=O)O)c1cc(F)ccc1Cl (single isomer, unassigned; (+)) [Example 7, (+)-5-({[6-Bromo-3-methyl-2-(piperidin-1-yl)quinolin-4-yl]carbonyl}amino)-4-(2-chloro-5-fluorophenyl)pentanoic acid]
23 | 13 | Cc1c(N2CCCC(F)(F)C2)nc2ccc(Br)cc2c1C(=O)NCC(CCC(=O)O)c1ccccc1Cl (single isomer, unassigned; (-)) [Example 51, (−)-5-({[6-Bromo-2-(3,3-difluoropiperidin-1-yl)-3-methylquinolin-4-yl]carbonyl}amino)-4-(2-chlorophenyl)pentanoic acid]
24 | 11 | [2H]C1([2H])N(c2nc3ccc(Br)cc3c(C(=O)NCC(CCC(=O)O)c3ccccc3OC(F)(F)F)c2C)C([2H])([2H])C([2H])([2H])C1([2H])[2H] (single isomer, unassigned; (+)) [Example 279, (+)-5-[({6-Bromo-3-methyl-2-[(^2H8)pyrrolidin-1-yl]quinolin-4-yl}carbonyl)amino]-4-[2-(trifluoromethyl)phenyl]pentanoic acid]
25 | 7.8 | Cc1c(N2CCCCC2)nc2ccc(Br)cc2c1C(=O)NCC(CCC(=O)O)c1cc(F)ccc1Cl (single isomer, unassigned; (-)) [Example 6, (−)-5-({[6-Bromo-3-methyl-2-(piperidin-1-yl)quinolin-4-yl]carbonyl}amino)-4-(2-chloro-5-fluorophenyl)pentanoic acid]
26 | 110 | Cc1c(N2CCCC(C)(O)C2)nc2ccc(Br)cc2c1C(=O)NCC(CCC(=O)O)c1ccccc1Cl (stereo not shown) [Example 62, 5-[({6-Bromo-2-[3-hydroxy-3-methylpiperidin-1-yl]-3-methylquinolin-4-yl}carbonyl)amino]-4-(2-chlorophenyl)pentanoic acid]
27 | 44 | COc1ccccc1C(CCC(=O)O)CNC(=O)c1c(C)c(N2CCCC2)nc2ccc(Br)cc12 (single isomer, unassigned; (-)) [Example 238, (−)-5-({[6-Bromo-3-methyl-2-(pyrrolidin-1-yl)quinolin-4-yl]carbonyl}amino)-4-(2-methoxyphenyl)pentanoic acid]

Row | Compound | IC50 [nM]
28 | CCC1CCCN(c2nc3ccc(Br)cc3c(C(=O)NCC(CCC(=O)O)c3ccccc3Cl)c2C)C1 (racemic) [Example 57, (+/−)-5-[({6-Bromo-2-[3-ethylpiperidin-1-yl]-3-methylquinolin-4-yl}carbonyl)amino]-4-(2-chlorophenyl)pentanoic acid] | 0.84
